Values joined by “and” are separate entries in the source; they are usually repeats but may differ in a detail not shown here. Equal values may be shown once. Read-outs that look alike come from different tables or passages of the source.
Tests used:
ATG4B [1] = target: T1, ATG4B (Homo sapiens, UniProt Q9Y4P1); assay: In vitro cleavage assay of ATG4B catalytic activity (western blot of tagged LC3B); assay type: biochemical
T1 sequence (Q9Y4P1 whole entry, looked up): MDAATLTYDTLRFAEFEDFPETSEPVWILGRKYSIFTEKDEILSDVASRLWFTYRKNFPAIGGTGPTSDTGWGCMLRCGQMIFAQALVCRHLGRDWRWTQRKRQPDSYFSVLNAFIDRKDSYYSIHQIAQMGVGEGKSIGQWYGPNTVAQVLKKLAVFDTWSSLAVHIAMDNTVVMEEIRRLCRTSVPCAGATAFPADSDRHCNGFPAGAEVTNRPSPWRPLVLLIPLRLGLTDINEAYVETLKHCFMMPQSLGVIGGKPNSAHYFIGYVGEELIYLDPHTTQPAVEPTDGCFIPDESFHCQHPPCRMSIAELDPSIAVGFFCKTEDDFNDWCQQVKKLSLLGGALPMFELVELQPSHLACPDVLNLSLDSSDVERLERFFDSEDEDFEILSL
Description: (§1) The reagents were incubated at 37° C. for 30 minutes and then subjected to western blotting. The intensity of the band in the gel was calculated by using Image Studio Lite from LI-COR Biosciences or ImageJ.
(§2) The full-length LC3B fusion protein was used as the negative control and as the positive control when also incubated with ATG4B (FIG. 22A). […] A peptide that can inhibit ATG4B activity will weaken the fluorescence signal produced by the cleaved PLA2.

HCT116 = assay: Cell viability assay on HCT116; assay type: cell-based, human
AK4.4 = assay: Cell viability assay (MTT) on AK4.4; conditions: for IC50: Mus musculus
Description: (§3) The cell viability was measured using the MTT assay or CellTiter-Glo Luminescent Cell Viability Assay. For MTT assay, mouse AK4.4 (1,000 cells/well) and human AsPC-1 (1,500 cells/well) cells were seeded in 96-well plates and cultured in serum-free medium (SFM) containing indicated concentrations of drugs for 48 hours. To measure the cell viability, 15 μL MTT (3-(4,5-dimethylthiazol-2-yl)-2,5-diphenyltetrazolium bromide, 5 mg/mL in PBS) was added in each well and kept at 37° C. for three hours. The precipitated crystals were then dissolved in 50 μL DMSO, and the absorbance at 570 nm was measured by Multiskan GO Microplate Spectrophotometer (Thermo Scientific, USA) to estimate the cell survival rate. To quantify the drug combination effect, the combination index was calculated when the cell viability was reduced by 50% using the following Equation (1):

shCtrl/HCT116 = assay: Cell viability assay on shCtrl/HCT116 (control strain); assay type: cell-based, human; conditions: Homo sapiens, HCT-116, remaining viability, 20 μM drug, C strain; read-out: shCtrl/HCT116 Cell Viability
AsPC-1 = assay: Cell viability assay (MTT) on AsPC-1
Description: as §3

ATG4B [2] = target: T2, ATG4B (Homo sapiens, UniProt Q9Y4P1); assay: In vitro cleavage assay of ATG4B catalytic activity (western blot of tagged LC3B); assay type: biochemical; conditions: 10 μM; read-out: inhibition on ATG4B's catalytic activity
Description: as §1, §2

shATG4B/HCT116 = assay: Cell viability assay on shATG4B/HCT116 (ATG4B silencing strain); assay type: cell-based, human; conditions: 20 μM drug, S strain
ATG4B [3] = target: T2, ATG4B; assay: ATG4B enzyme activity assay by S-tag-based immunoblotting; assay type: biochemical; conditions: read-out: inhibition of ATG4B catalysis
Description: Protein expression and purification for the study of prediction of the allosteric sites in ATG4B Human ATG4B with N-terminal 6xHis-tag and human LC3B with both N-terminal 6xHis-tag and C-terminal S-tag were cloned into pETDuet-1 expression plasmids as previously described (Shu, C W et al., 2010, Autophagy 6, 936-947), subsequently transformed into E. coli BL21 (ECOS 21, Yeastern Biotech Co., FYE207-40VL). A single colony harboring the correctly in-frame inserted gene was inoculated into an overnight culture that was then diluted 100-fold in fresh Luria-Bertani broth with 50 μg/mL ampicillin for growing at 37° C. with 200 rpm agitation for 2 to 3 hours until the optical density of the culture at 600 nm reaches 0.4 (around 3×10^8 cells/mL). […]
The expression cell culture was harvested by 12,000×g centrifugation at 4° C. for 20 minutes, and the cell pellets of 1 liter broth were resuspended in a 10 mL lysis buffer (50 mM Tris-HCl, pH 7.4, 300 mM NaCl, 20 mM imidazole). […] The protein purity was verified >90% by Coomassie blue staining on SDS-PAGE, and the quantity was measured by bicinchoninic acid assay.
ATG4B enzyme activity assay was analyzed by immunoblotting. […] The intensities of remaining substrate LC3B after enzymatic cleavage were quantified by the software ImageJ.

[4] = test system: AK4.4 pancreatic ductal adenocarcinoma (PDAC) xenograft; conditions: dose of 20 mg/kg, I.P.
[5] = in vivo
ATG4B [6] = target: T1, ATG4B; assay: ATG4B activity reporter assay (cleaved PLA2 fluorescence); assay type: biochemical; set-up: host or cells: in silico model from PDB 2Z0D
Description: The inhibitory effect of the three designed peptides on ATG4B activity was tested using ATG4B cleavage assays and ATG4B activity reporter assays. […] The full-length LC3B fusion protein was used as the negative control and as the positive control when also incubated with ATG4B (FIG. 22A). […] A peptide that can inhibit ATG4B activity will weaken the fluorescence signal produced by the cleaved PLA2.

[7] = target: LC3B substrate of the ATG4B activity reporter assays (cleavage releases PLA2), Q9GZQ8; assay: cell-based or functional assay
[8] = remaining viability, 20 μM drug, normalized by blank control, three repeats
[9] = Tc concentration for 50% reduction of viability in combination with 0.50 μM Mx
[10] = Tc concentration for 50% reduction of viability in combination with 1.00 μM Mx
[11] = Tc concentration for 50% reduction of viability in combination with 2.5 μM Vb
[12] = Tc concentration for 50% reduction of viability in combination with 5 μM Vb
[13] = Tc concentration for 50% reduction of viability in combination with 10 μM Vb

In the case of Ac-YDTLGIF-NH2 [N-term-7], the “inhibition to ATG4B activity at lower peptide concentration” value (ATG4B [1]; 1 μM peptide) is reported as “maintained” and the “inhibition to ATG4B activity” value (ATG4B [1]; ATG4B cleavage assays, 10 μM peptide) is reported as “about 30%”.

For `CO/N=C1\C[C@]2(C[C@@H]3C[C@@H](C/C=C(\C)C[C@@H](C)/C=C/C=C4\CO[C@@H]5[C@H](O)C(C)=C[C@@H](C(=O)O3)[C@]45O)O2)O[C@H](/C(C)=C/C(C)C)[C@H]1C` [Moxidectin], the viability at 20 µM (HCT116; Homo sapiens, HCT-116, remaining viability, 20 μM drug, normalized by blank control, three repeats, read-out: HCT116 Cell Viability) was 2%, the “HCT116 Cell Viability” value (HCT116; [8]) was 1.7 ± 0.1% and the IC50 (AK4.4; read-out: IC50, Mx, moxidectin alone, AK4.4 (Table 12)) was 1.07 µM. For the same molecule, the IC50 (AK4.4; read-out: IC50, Mx, moxidectin alone, AK4.4 (Table 14)) was 0.87 µM, the “CMx, 50” value (AK4.4; Mx concentration in combination with Tc for a 50% reduction of the cell viability, listed as Mx) was 0.50 µM and 1.00 µM and the “CMx, 50” value (AK4.4; Mx concentration in combination with Vb for a 50% reduction of the cell viability) was 0.50 µM. For the same molecule, the viability at 20 µM (shCtrl/HCT116) was 1%, the viability at 20 µM (AsPC-1; Homo sapiens, ASPC1, read-out: AsPC-1 Cell Viability, remaining viability, 20 μM drug, normalized by blank control, three repeats) was 8% and the IC50 (AsPC-1; Homo sapiens, ASPC1, read-out: IC50, Mx, moxidectin alone, AsPC-1 (Table 13)) was 1.38 µM. The IC50 (AsPC-1; Homo sapiens, ASPC1, read-out: IC50, Mx, moxidectin alone, AsPC-1 (Table 15)) was 1.24 µM, the “CMx, 50” value (AsPC-1; Mx concentration in combination with Vb for a 50% reduction of the cell viability, listed as Mx) was 0.50 µM and 1.00 µM and the “AsPC-1 Cell Viability” value (AsPC-1; [8]) was 7.8 ± 0.8%. For the same molecule, the inhibition at 10 µM (ATG4B [2]) was 38%, the viability at 20 µM (shATG4B/HCT116; Homo sapiens, HCT-116, remaining viability, read-out: shATG4B/HCT116 Cell Viability) was 1% and the “shATG4B/HCT116 Cell Viability” value (shATG4B/HCT116; remaining viability) was 0.9 ± 0.1%. It also gave an inhibition at 10 µM (ATG4B [3]; 10 μM) of 36% and an inhibition at 20 µM (ATG4B [3]; 20 μM) of over 80%.

In the case of `Clc1ccc(C(Cn2ccnc2)OCc2ccsc2Cl)c(Cl)c1` (stereo not drawn) [tioconazole], the “decrease of cell viability of HCT116” value (HCT116; human, 10 μM) is reported as 33%, the IC50 (AK4.4; read-out: IC50, Tc, tioconazole alone, AK4.4 (Table 8)) is reported as 14 µM and the IC50 (AK4.4; read-out: IC50, Tc, tioconazole alone, AK4.4 (Table 11)) is reported as 12.5 µM. For the same molecule, the IC50 (AK4.4; read-out: IC50, Tc, tioconazole alone, AK4.4 (Table 12)) was 13 µM, the “CTc, 50” value (AK4.4; Tc concentration for 50% reduction of viability in combination with 0.05 μM Pn) was 12.31 µM and the “CTc, 50” value (AK4.4; Tc concentration for 50% reduction of viability in combination with 0.1 μM Pn) was 11.85 µM. For the same molecule, the “CTc, 50” value (AK4.4; Tc concentration for 50% reduction of viability in combination with 0.25 μM Pn) was 5.86 µM, the “CTc, 50” value (AK4.4; [9]) was 13.42 µM and the “CTc, 50” value (AK4.4; Tc concentration for 50% reduction of viability in combination with 0.5 μM Pn) was 0.17 µM. For the same molecule, the “CTc, 50” value (AK4.4; [10]) was 4.21 µM, the “CTc, 50” value (AK4.4; [11]) was 12.07 µM and the “CTc, 50” value (AK4.4; [12]) was 8.43 µM. For the same molecule, the “CTc, 50” value (AK4.4; [13]) was 5.88 µM, the IC50 (AsPC-1; Homo sapiens, ASPC1, read-out: IC50, Tc, tioconazole alone, AsPC-1 (Table 9)) was 13.5 µM and the IC50 (AsPC-1; Homo sapiens, ASPC1, read-out: IC50, Tc, tioconazole alone, AsPC-1 (Table 13)) was 9.61 µM. For the same molecule, the “CTc, 50” value (AsPC-1; [9]) was 8.61 µM, the “CTc, 50” value (AsPC-1; [10]) was 7.83 µM and the “CTc, 50” value (AsPC-1; Tc concentration for 50% reduction of viability in combination with 1.25 μM Mx) was 5.65 µM. The “CTc, 50” value (AsPC-1; [11]) was 8.14 µM, the “CTc, 50” value (AsPC-1; [12]) was 6.32 µM and the “CTc, 50” value (AsPC-1; [13]) was 5.21 µM. The “tumor size measured on day 16 versus control group” value [4] was “less than half of the tumor size in the control group”, the “liver weight, % of mouse body weight” value [5] was 5.69% and the “increase in the liver (relative organ weight)” value ([5]; mouse) was 8%. For the same molecule, the “increase in triglyceride as compared to the control” value ([5]; mouse) was 25% and the triglyceride ([5]; mouse) was 198.2 mg/dL.

In the case of Ac-YDTLRFAEF-NH2 [N-term-9], the “inhibition to ATG4B activity at lower peptide concentration” value (ATG4B [6]; 1 μM peptide) is reported as “maintained” and the “inhibition to ATG4B activity” value (ATG4B [6]; ATG4B activity reporter assays, 10 μM peptide) is reported as about 25%.

B1: N-term-9 (Ac-…-NH2) (peptide)
peptide: Ac-YDTLRFAEF-NH2
B1 gave an inhibition to ATG4B activity (ATG4B activity reporter assays) [7] of 25%.
